Measured values reported in patent US20250215029A1 (Recludix Pharma, Inc., priority 2022, published 2025).

What was measured:
[1] = biological target: T1, Recombinant STAT3 protein (STAT3 (G127-I722)) (Homo sapiens, UniProt P40763); assay: STAT3 Fluorescence Polarization (FP) Assay; assay type: binding; conditions: STAT3 25 nM, probe 5-FAM-GpYLPQTV-NH2 2 nM, 45-minute incubation; read-out: STAT3 (FP assay IC50)
T1 construct: Recombinant STAT3 protein (STAT3 (G127-I722))
Summary of the method: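 Displacement of a fluorescent phosphotyrosine peptide (5-FAM-GpYLPQTV-NH2, 2 nM) from 25 nM recombinant STAT3 G127-I722 was monitored by FP after 45 min at room temperature.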

[2] = biological target: T2, Recombinant STAT6 protein (STAT6 (W123-T658)) (Homo sapiens, UniProt P42226); assay: STAT6 Fluorescence Polarization (FP) Assay; assay type: binding; conditions: STAT6 250 nM, probe 5-FAM-Ap[…]-NH2 2 nM, 45-minute incubation; read-out: STAT6 (FP assay IC50)
T2 construct: Recombinant STAT6 protein (STAT6 (W123-T658))
T2 sequence (P42226 123-658): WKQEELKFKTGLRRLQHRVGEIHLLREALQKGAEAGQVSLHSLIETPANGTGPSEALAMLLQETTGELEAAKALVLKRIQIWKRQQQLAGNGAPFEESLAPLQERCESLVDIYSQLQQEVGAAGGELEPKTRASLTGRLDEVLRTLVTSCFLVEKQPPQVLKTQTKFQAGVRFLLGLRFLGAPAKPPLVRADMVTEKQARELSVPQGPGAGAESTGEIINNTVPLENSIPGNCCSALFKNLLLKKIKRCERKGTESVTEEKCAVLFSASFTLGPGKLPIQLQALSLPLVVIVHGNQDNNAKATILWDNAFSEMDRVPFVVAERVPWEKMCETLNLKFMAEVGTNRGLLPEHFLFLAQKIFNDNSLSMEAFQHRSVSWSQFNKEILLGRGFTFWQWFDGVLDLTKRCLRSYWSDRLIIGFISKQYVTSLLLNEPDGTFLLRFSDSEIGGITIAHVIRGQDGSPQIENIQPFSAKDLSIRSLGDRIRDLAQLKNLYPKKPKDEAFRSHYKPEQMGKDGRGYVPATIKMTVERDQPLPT
Summary of the method: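 Protein-probe mix (250 nM STAT6 W123-T658, 2 nM 5-FAM-pTyr peptide) in 10 mM HEPES pH 7.4, 50 mM NaCl, 1 mM EDTA, 0.05% Tween 20, 2 mM DTT; added to compound dilution series, 1% DMSO final; 45 min RT; FP read; IC50 via nonlinear regression.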

T1 sequence (P40763 127-722): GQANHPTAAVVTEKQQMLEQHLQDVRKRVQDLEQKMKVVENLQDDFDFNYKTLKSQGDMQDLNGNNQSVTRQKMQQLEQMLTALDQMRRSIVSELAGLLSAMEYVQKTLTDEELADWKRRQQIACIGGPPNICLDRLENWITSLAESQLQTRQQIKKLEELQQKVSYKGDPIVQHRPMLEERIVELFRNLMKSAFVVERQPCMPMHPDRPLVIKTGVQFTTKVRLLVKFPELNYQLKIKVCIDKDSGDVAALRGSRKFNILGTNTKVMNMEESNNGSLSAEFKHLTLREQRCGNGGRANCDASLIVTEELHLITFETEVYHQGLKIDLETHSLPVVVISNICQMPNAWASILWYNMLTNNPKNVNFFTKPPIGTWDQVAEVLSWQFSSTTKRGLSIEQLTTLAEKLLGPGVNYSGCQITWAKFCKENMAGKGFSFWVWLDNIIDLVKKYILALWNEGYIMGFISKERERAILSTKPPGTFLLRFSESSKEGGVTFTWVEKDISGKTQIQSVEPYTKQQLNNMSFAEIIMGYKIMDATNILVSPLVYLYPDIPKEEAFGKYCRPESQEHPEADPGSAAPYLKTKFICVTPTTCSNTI

| Structure (SMILES) | IC50 [1] [nM] | IC50 [2] [nM] |
| --- | --- | --- |
| O=C(N[C@H]1CCC2(CC2)C[C@H]2CC[C@@H](C(=O)N3CC(c4cccnc4)C3)N2C1=O)c1cc2cc(C(F)(F)P(=O)(O)O)ccc2s1 [Compound 25, (difluoro(2-(((3′S,6′S,10a′R)-5′-oxo-3′-(3-(pyridin-3-yl)azetidine-1-carbonyl)octahydro-1′H-spiro [cyclopropane-1,9′-pyrrolo[1,2-a]azocin]-6′-yl)carbamoyl)benzo[b]thiophen-5-yl)methyl) phosphonic acid] | < 100 | 300 to 3000 |
| O=C(N[C@H]1CCC[C@H]2CC[C@@H](C(=O)Nc3ccc(-c4ccccc4)cc3)N2C1=O)c1ccc2ccc(C(F)(F)P(=O)(O)O)cc2c1 [Compound 29, ((7-(((3S,6S,9aS)-3-([1,1′-biphenyl]-4-ylcarbamoyl)-5-oxooctahydro-1H-pyrrolo[1,2-a]azepin-6-yl)carbamoyl)naphthalen-2-yl)difluoromethyl) phosphonic acid] | 100 to 1000 | 3000 to 30000 |
| O=C(N[C@H]1CCC[C@H]2CC[C@@H](C(=O)N3CC(c4cccnc4)C3)N2C1=O)c1cc2cc(C(F)(F)P(=O)(O)O)ccc2s1 [Compound 33, (difluoro(2-(((3S,6S,9S)-5-oxo-3-(3-(pyridin-3-yl)azetidine-1-carbonyl)octahydro-1H-pyrrolo[1,2-a]azepin-6-yl)carbamoyl)benzo[b]thiophen-5-yl)methyl) phosphonic acid] | < 100 | 300 to 3000 |
| O=C(N[C@H]1CCC[C@H]2CC[C@@H](C(=O)N3CC(N4CCOCC4)C3)N2C1=O)c1cc2cc(C(F)(F)P(=O)(O)O)ccc2s1 [Compound 34, (difluoro(2-(((3S,6S,9aS)-3-(3-morpholino-azetidine-1-carbonyl)-5-oxooctahydro-1H-pyrrolo[1,2-a]azepin-6-yl)carbamoyl)benzo[b]thiophen-5-yl)methyl) phosphonic acid] | 100 to 1000 | 3000 to 30000 |
| O=C(/C=C/c1ccc(C(F)(F)P(=O)(O)O)cc1)N[C@H]1CCC[C@H]2CC[C@@H](C(=O)Nc3ccc(-c4ccccc4)cc3)N2C1=O [Compound 35, ((4-((E)-3-(((3S,6S,9S)-3-([1,1′-biphenyl]-4-ylcarbamoyl)-5-oxooctahydro-1H-pyrrolo[1,2-a]azepin-6-yl)amino)-3-oxoprop-1-en-1-yl)phenyl)difluoromethyl) phosphonic acid] | > 10000 | 3000 to 30000 |

Next, values leading:

| IC50 [1] [nM] | IC50 [2] [nM] | Structure (SMILES) |
| --- | --- | --- |
| < 100 | 300 to 3000 | O=C(N[C@H]1CC/C=C\[C@H]2CC[C@@H](C(=O)N3CC(c4cccnc4)C3)N2C1=O)c1cc2cc(C(F)(F)P(=O)(O)O)ccc2s1 [Compound 26, (difluoro(2-(((3S,6S,10aR,Z)-5-oxo-3-(3-(pyridin-3-yl)azetidine-1-carbonyl)-1,2,3,5,6,7,8,10a-octahydropyrrolo[1,2-a]azocin-6-yl)carbamoyl)benzo[b]thiophen-5-yl)methyl) phosphonic acid] |
| 1000 to 10000 | 300 to 3000 | CN(C(=O)[C@@H]1CC[C@@H]2C/C=C\C[C@H](NC(=O)c3cc4cc(C(F)(F)P(=O)(O)O)ccc4[nH]3)C(=O)N21)c1ccccc1 [Compound 30] |
| 100 to 1000 | 300 to 3000 | O=C(N[C@H]1CCC[C@H]2CC[C@@H](C(=O)NCc3c[nH]c4ncccc34)N2C1=O)c1cc2cc(C(F)(F)P(=O)(O)O)ccc2s1 [Compound 31, ((2-(((3S,6S,9aS)-3-(((1H-pyrrolo[2,3-b]pyridin-3-yl)methyl)carbamoyl)-5-oxooctahydro-1H-pyrrolo[1,2-a]azepin-6-yl)carbamoyl)benzo [b]thiophen-5-yl)difluoromethyl) phosphonic acid] |
| < 100 | 3000 to 30000 | CS(=N)(=O)CC1CN(C(=O)[C@@H]2CC[C@@H]3CCC[C@H](NC(=O)c4cc5cc(C(F)(F)P(=O)(O)O)ccc5s4)C(=O)N32)C1 (stereo partly drawn) [Compound 32, (difluoro(2-(((3S,6S,9aS)-3-(3-((S-methyl-sulfonimidoyl)methyl)azetidine-1-carbonyl)-5-oxooctahydro-1H-pyrrolo[1,2-a]azepin-6-yl)carbamoyl)benzo[b]thiophen-5-yl)methyl) phosphonic acid] |
